Patent US8853147B2, “Use of peptide epoxyketones for metastasis suppression” (Onyx Therapeutics, Inc., priority 2009, dated 2014)
“Also recorded” adds a separate entry of the source.

Tested on: 4T1 mammary carcinoma cells
Experiment: 4T1 mammary carcinoma metastasis model in BALB/c mice (mammary fat pad challenge, lung metastases)
Assay type: in vivo
Details: female BALB/c mice
Description: 6-8 week old female BALB/c mice were challenged in the mammary fat pad with 4T1 mammary carcinoma cells (1×10^5/mouse). Treatment was initiated on Day 3 post tumor challenge. Compound 1 was administered orally at 30 or 40 mg/kg on a weekly schedule of QDX2 or QDX5.

## COC[C@H](NC(=O)c1cnc(C)s1)C(=O)N[C@@H](COC)C(=O)N[C@@H](Cc1ccccc1)C(=O)[C@@]1(C)CO1 [Compound 1]
4T1 cells 1×10^5/mouse in mammary fat pad, oral 30 or 40 mg/kg, weekly schedule QDX2 or QDX5, treatment from Day 3 post tumor challenge
  reduction of the number of metastatic tumors in the lung: about 50%
4T1 model, both dose schedules (QDX2, QDX5) and dose levels (30, 40 mg/kg oral), FIG. 1
  repression of metastasis (number of metastatic tumors), result in words: reduction in the number of metastatic breast tumors; also recorded: effective in repressing metastasis
